These results are taken from patent US6462039B1, “Fungicidal benzoheterocyclyloxime” (Bayer Aktiengesellschaft, priority 1998, dated 2002).

For orientation: chromatographic logP means a lipophilicity value derived from retention on a column. The low end stands for a more hydrophilic compound, the high end for a more lipophilic compound.

Like-named read-outs stand apart in the source and are kept apart here.

Series [1] concerns Fusarium nivale (var. nivale). The experiment in a line: Fusarium nivale (var. nivale) test (wheat)/protective. Type of series: in vivo. Particulars: protective, application rate 250 g/ha, evaluation 4 days after inoculation. From the text:
Fusarium Nivale (Var. Nivale) Test (Wheat)/Protective Solvent: 25 parts by weight of N,N-dimethylacetamide Emulsifier: 0.6 part by weight of alkylaryl polyglycol ether […] To test for protective activity, young plants are sprayed with the preparation of active compound at the stated application rate. After the spray coating has dried on, the plants are sprayed with a conidia suspension of Fusarium nivale (var. nivale).

Series [2] has as its system Erysiphe graminis f.sp. hordei. The series is described as follows: Erysiphe test (barley)/protective. The series is classed as in vivo. The settings on record: protective, application rate 250 g/ha, evaluation 7 days after inoculation. As to the method:
Erysiphe Test (Barley)/Protective Solvent: 25 parts by weight of N,N-dimethylacetamide Emulsifier: 0.6 part by weight of alkylaryl polyglycol ether To produce a suitable preparation of active compound 1 part by weight of active compound is mixed with the stated amounts of solvent and emulsifier and the concentrate is diluted with water to the desired concentration. To test for protective activity, young plants are sprayed with the preparation of active compound at the stated application rate. After the spray coating has dried on, the plants are dusted with spores of Erysiphe graminis f.sp. hordei. The plants are placed in a greenhouse at a temperature of approximately 20° C. and a relative atmospheric humidity of approximately 80% to promote the development of mildew pustules.

Series [3] deals with Erysiphe graminis f.sp. hordei. The series is described as follows: Erysiphe test (barley)/curative. The series is classed as in vivo. Particulars: curative (sprayed 48 hours after inoculation), application rate 250 g/ha, evaluation 7 days after inoculation. As to the method:
Erysiphe Test (Barley)/Curative Solvent: 25 parts by weight of N,N-dimethylacetamide Emulsifier: 0.6 part of weight of alkylaryl polyglycol ether To produce a suitable preparation of active compound 1 part by weight of active compound is mixed with the stated amounts of solvent and emulsifier and the concentrate is diluted with water to the desired concentration. To test for curative activity, young plants are dusted with spores of Erysiphe graminis f.sp. hordei. 48 hours after the inoculation, the plants are sprayed with the preparation of active compound at the stated application rate. The plants are placed in a greenhouse at a temperature of approximately 20° C. and a relative atmospheric humidity of approximately 80% to promote the development of mildew pustules.

Another series relates to Puccinia recondita. The experiment in a line: Puccinia test (wheat)/protective. The series is classed as in vivo. Particulars: protective, application rate 250 g/ha, evaluation 10 days after inoculation. As to the method:
Puccinia Test (Wheat)/Protective Solvent: 25 parts by weight of N,N-dimethylacetamide Emulsifier: 0.6 part by weight of alkylaryl polyglycol ether […] To test for protective activity, young plants are sprayed with the preparation of active compound at the stated application rate. After the spray coating has dried on, the plants are dusted with a conidia suspension of Puccinia recondita. […] The plants are then placed in a greenhouse at a temperature of approximately 20° C. and a relative atmospheric humidity of 80% to promote the development of rust pustules.

Experimental for physchem: The logP values were determined in accordance with EEC Directive 79/831 Annex V. A8 by HPLC (gradient method, acetonitrile/0.1% aqueous phosphoric acid)

`CO/N=C(/C1=NOCCO1)c1ccccc1CO/N=C(\C)c1nn(C)c2ccccc12` [Example 1, O-{2-[(5,6-dihydro-[1,4,2]dioxazin-3-yl)-methoxyiminomethyl]-benzyl}1-(1-methyl-1H-indazol-3-yl)-ethanone-oxime]: the efficacy (in series [1]; in series [2]; in series [3]; with Puccinia recondita) was 100% in each case. Take `CCCn1nc(/C(C)=N\O)c2ccccc21` [(II-a-3)]: the chromatographic logP in the series “physchem” stood at 2.55. `CC(=O)c1nn(C(F)F)c2ccccc12` [Example (V-1), 1-(1-difluoromethyl-1H-indazol-3-yl)-ethanone] showed a chromatographic logP of 2.67. `C=CCn1nc(/C(C)=N\O)c2ccccc21` [(II-a-4)] displayed a chromatographic logP in the series “physchem” of 2.28. Consider `COc1ccc2c(C(C)=O)nn(C)c2c1` [(V-6)], for which the chromatographic logP in the series “physchem” turned out to be 1.99.

As for `C=CCn1nc(C(C)=O)c2ccccc21` [(V-4)], the chromatographic logP stood at 2.53. `C/C(=N/O)c1cn(C(F)F)c2ccccc12` [(II-a-7)]: in the series “physchem”, the chromatographic logP worked out at 2.25. Take `CC(=O)c1cn(C(F)F)c2ccccc12` [(V-7)]: the chromatographic logP amounted to 2.22. In “physchem”, `COc1ccc2c(/C(C)=N\O)nn(C)c2c1` [(II-a-6)] gave a chromatographic logP of 1.76. On the same count and under the same terms, in the case of `CCn1nc(/C(C)=N\O)c2ccccc21` [(II-a-2)] it was 2.13.

As for `CCn1cc(C(C)=O)c2ccccc21` [(V-2)], the chromatographic logP was determined as 2.35. The same measure, in the same setting: in the case of `CC(=O)c1nn(C(C)C)c2ccccc12` [(V-5)] it was 2.98. Still for that read-out and setting: in the case of `CCCn1nc(C(C)=O)c2ccccc21` [(V-3)] it was 2.81. For `C/C(=N/O)c1nn(C(C)C)c2ccccc12` [(II-a-5)], the chromatographic logP in “physchem” came to 2.72.
